Results from PubChem BioAssay AID1963834 (Molecular Pharmacology Branch, DTP, NCI, 2024).

System: 873145-292-R-J1-PDC complex spheroid viability
Assay: Anticancer human tumor 873145-292-R-J1-PDC patient-derived renal clear cell carcinoma cell line growth inhibition [POLQ]
Details: for IC50: curve of first compound; for viability, T/C: stronger effect = lower value
Method in brief: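 Three-cell-type spheroids modelling solid tumor plus stroma served as the readout system; POL inhibitors were tested individually and in combination, concentration ranges set by clinical Cmax where known.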

[1] = second compound 0.0316 µM, first compound 0.00316 µM
[2] = second compound 0.0316 µM, first compound 0.01 µM
[3] = second compound 0.0316 µM, first compound 0.0316 µM
[4] = second compound 0.0316 µM, first compound 0.1 µM
[5] = second compound 0.0316 µM, first compound 0.316 µM
[6] = second compound 0.0316 µM, first compound 1 µM
[7] = second compound 0.1 µM, first compound 0.00316 µM
[8] = second compound 0.1 µM, first compound 0.01 µM
[9] = second compound 0.1 µM, first compound 0.0316 µM
[10] = second compound 0.1 µM, first compound 0.1 µM
[11] = second compound 0.1 µM, first compound 0.316 µM
[12] = second compound 0.1 µM, first compound 1 µM
[13] = second compound 0.316 µM, first compound 0.00316 µM
[14] = second compound 0.316 µM, first compound 0.01 µM
[15] = second compound 0.316 µM, first compound 0.0316 µM
[16] = second compound 0.316 µM, first compound 0.1 µM
[17] = second compound 0.316 µM, first compound 0.316 µM
[18] = second compound 0.316 µM, first compound 1 µM
[19] = second compound 1 µM, first compound 0.00316 µM
[20] = second compound 1 µM, first compound 0.01 µM
[21] = second compound 1 µM, first compound 0.0316 µM
[22] = second compound 1 µM, first compound 0.1 µM
[23] = second compound 1 µM, first compound 0.316 µM
[24] = second compound 1 µM, first compound 1 µM
[25] = second compound 3.16 µM, first compound 0.00316 µM
[26] = second compound 3.16 µM, first compound 0.01 µM
[27] = second compound 3.16 µM, first compound 0.0316 µM
[28] = second compound 3.16 µM, first compound 0.1 µM
[29] = second compound 3.16 µM, first compound 0.316 µM
[30] = second compound 3.16 µM, first compound 1 µM
[31] = second compound 10 µM, first compound 0.00316 µM
[32] = second compound 10 µM, first compound 0.01 µM
[33] = second compound 10 µM, first compound 0.0316 µM
[34] = second compound 10 µM, first compound 0.1 µM
[35] = second compound 10 µM, first compound 0.316 µM
[36] = second compound 10 µM, first compound 1 µM
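Also: spheroids exposed to compounds for 7 days before viability readout.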
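For viability, T/C in this document: luminescence signal used as surrogate for viable cell content; 100% = DMSO vehicle control viability.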

For C=CCn1c(=O)c2cnc(Nc3ccc(N4CCN(C)CC4)cc3)nc2n1-c1cccc(C(C)(C)O)n1 + Cc1cccc(N(C)C(=O)C2C(O)CCN2c2nc(C)cc(C(F)(F)F)c2C#N)c1, the IC50 (second compound 0.0316 µM) was > 1 µM, the IC50 (second compound 0.1 µM) was > 1 µM and the IC50 (second compound 0.316 µM) was > 1 µM. For the same molecule, the IC50 (second compound 1 µM) was > 1 µM, the IC50 (second compound 3.16 µM) was > 1 µM and the IC50 (second compound 10 µM) was > 1 µM. It also gave a viability, T/C [1] of 93.1%, a viability, T/C [2] of 104% and a viability, T/C [3] of 102%. The viability, T/C [4] was 92%, the viability, T/C [5] was 83.3% and the viability, T/C [6] was 77.8%. It also gave a viability, T/C [7] of 101%, a viability, T/C [8] of 97.3% and a viability, T/C [9] of 96%. It also gave a viability, T/C [10] of 87.1%, a viability, T/C [11] of 88.3% and a viability, T/C [12] of 76.7%. For the same molecule, the viability, T/C [13] was 101%, the viability, T/C [14] was 110% and the viability, T/C [15] was 82.8%. For the same molecule, the viability, T/C [16] was 94.6%, the viability, T/C [17] was 81.4% and the viability, T/C [18] was 74.9%. For the same molecule, the viability, T/C [19] was 89.8%, the viability, T/C [20] was 94.4% and the viability, T/C [21] was 101%. It also gave a viability, T/C [22] of 85.8%, a viability, T/C [23] of 87.5% and a viability, T/C [24] of 75.5%. It also gave a viability, T/C [25] of 97.7%, a viability, T/C [26] of 120% and a viability, T/C [27] of 112%. The viability, T/C [28] was 91.3%, the viability, T/C [29] was 86.9% and the viability, T/C [30] was 81.7%. For the same molecule, the viability, T/C [31] was 93.2%, the viability, T/C [32] was 97.2% and the viability, T/C [33] was 102%. The viability, T/C [34] was 85.1%, the viability, T/C [35] was 81.4% and the viability, T/C [36] was 75.3%.
In the case of CC[C@@]1(O)C(=O)OCc2c1cc1n(c2=O)Cc2cc3c(CN(C)C)c(O)ccc3nc2-1 + Cc1cccc(N(C)C(=O)C2C(O)CCN2c2nc(C)cc(C(F)(F)F)c2C#N)c1, the IC50 (second compound 0.0316 µM) is reported as > 0.1 µM, the IC50 (second compound 0.1 µM) is reported as > 0.1 µM and the IC50 (second compound 0.316 µM) is reported as 0.0922 µM. The IC50 (second compound 1 µM) was > 0.1 µM, the IC50 (second compound 3.16 µM) was > 0.1 µM and the IC50 (second compound 10 µM) was > 0.1 µM. The viability, T/C (second compound 0.0316 µM, first compound 0.000316 µM) was 105%, the viability, T/C (second compound 0.0316 µM, first compound 0.001 µM) was 95.2% and the viability, T/C [1] was 89.6%. The viability, T/C [2] was 104%, the viability, T/C [3] was 73.7% and the viability, T/C [4] was 52.5%. For the same molecule, the viability, T/C (second compound 0.1 µM, first compound 0.000316 µM) was 93.3%, the viability, T/C (second compound 0.1 µM, first compound 0.001 µM) was 101% and the viability, T/C [7] was 97.8%. For the same molecule, the viability, T/C [8] was 101%, the viability, T/C [9] was 74.4% and the viability, T/C [10] was 52.2%. It also gave a viability, T/C (second compound 0.316 µM, first compound 0.000316 µM) of 94.9%, a viability, T/C (second compound 0.316 µM, first compound 0.001 µM) of 113% and a viability, T/C [13] of 96.8%. The viability, T/C [14] was 97.3%, the viability, T/C [15] was 78.7% and the viability, T/C [16] was 47.8%. For the same molecule, the viability, T/C (second compound 1 µM, first compound 0.000316 µM) was 101%, the viability, T/C (second compound 1 µM, first compound 0.001 µM) was 98.9% and the viability, T/C [19] was 87.9%. It also gave a viability, T/C [20] of 104%, a viability, T/C [21] of 75% and a viability, T/C [22] of 59.2%. It also gave a viability, T/C (second compound 3.16 µM, first compound 0.000316 µM) of 89.6%, a viability, T/C (second compound 3.16 µM, first compound 0.001 µM) of 91.5% and a viability, T/C [25] of 92.8%. It also gave a viability, T/C [26] of 97.8%, a viability, T/C [27] of 78% and a viability, T/C [28] of 63.9%. The viability, T/C (second compound 10 µM, first compound 0.000316 µM) was 93.4%, the viability, T/C (second compound 10 µM, first compound 0.001 µM) was 95.2% and the viability, T/C [31] was 94.5%. It also gave a viability, T/C [32] of 98.8%, a viability, T/C [33] of 81.8% and a viability, T/C [34] of 54.5%.
Molecule CCc1c2c(nc3ccc(O)cc13)-c1cc3c(c(=O)n1C2)COC(=O)[C@]3(O)CC + Cc1cccc(N(C)C(=O)C2C(O)CCN2c2nc(C)cc(C(F)(F)F)c2C#N)c1 has an IC50 (second compound 0.0316 µM) of 0.0762 µM, an IC50 (second compound 0.1 µM) of 0.0717 µM and an IC50 (second compound 0.316 µM) of 0.0686 µM. It also gave an IC50 (second compound 1 µM) of 0.0649 µM, an IC50 (second compound 3.16 µM) of 0.0355 µM and an IC50 (second compound 10 µM) of 0.0744 µM. The viability, T/C [1] was 98.7%, the viability, T/C [2] was 80.6% and the viability, T/C [3] was 57.2%. The viability, T/C [4] was 46.8%, the viability, T/C [5] was 40% and the viability, T/C [6] was 28.6%. It also gave a viability, T/C [7] of 103%, a viability, T/C [8] of 81.6% and a viability, T/C [9] of 54.2%. The viability, T/C [10] was 46.7%, the viability, T/C [11] was 41.9% and the viability, T/C [12] was 28.2%. For the same molecule, the viability, T/C [13] was 107%, the viability, T/C [14] was 91.9% and the viability, T/C [15] was 57.9%. It also gave a viability, T/C [16] of 45.3%, a viability, T/C [17] of 39.4% and a viability, T/C [18] of 26.1%. For the same molecule, the viability, T/C [19] was 97.2%, the viability, T/C [20] was 79.8% and the viability, T/C [21] was 64.2%. The viability, T/C [22] was 39.2%, the viability, T/C [23] was 37.9% and the viability, T/C [24] was 29.4%. The viability, T/C [25] was 95%, the viability, T/C [26] was 69.8% and the viability, T/C [27] was 54.1%. For the same molecule, the viability, T/C [28] was 36.9%, the viability, T/C [29] was 33.7% and the viability, T/C [30] was 33.2%. It also gave a viability, T/C [31] of 87.8%, a viability, T/C [32] of 65.6% and a viability, T/C [33] of 56.4%. It also gave a viability, T/C [34] of 47.5%, a viability, T/C [35] of 47.6% and a viability, T/C [36] of 31.7%.
